Experimental findings from patent publication US20250281424A1 (New York Blood Center, Inc, priority 2020, published 2025) are described below.

For this experiment, the target named is T1, human PF4 (Homo sapiens, UniProt P02776).
T1 construct: PF4 is a 70 amino acid, lysine-rich 7.8 kDa platelet-specific protein; made in house; host or cells: Escherichia coli BL21DE3 pLysS (pT7-7) and/or Drosophila S2 cells
T1 sequence (P02776 32-101): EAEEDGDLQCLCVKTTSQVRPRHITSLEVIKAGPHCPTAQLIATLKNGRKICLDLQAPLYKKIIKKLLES
Nature of the experiment: Inhibition of PF4 tetramer formation (BS3 cross-linking, SDS-PAGE). The format is biochemical. As to conditions: for inhibition at 1 µM / inhibition at 3 µM: read-out: % inhibition of PF4 tetramer formation at single concentration of inhibitor. In outline:
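Monomer, dimer, trimer and tetramer fractions were quantified by densitometry after reducing 12% SDS-PAGE of BS3-cross-linked (0.2 mM, 30 min, room temperature) PF4. Before cross-linking, 10 μg/ml E. coli-expressed human WT PF4 in PBS was exposed to compound for 15 min at 37° C or 60 min at room temperature; controls lacked compound.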

Setting [1] is: 3 μM inhibitor (column A), 3 µM.
The mark [2] stands for this setting: read-out: IC50 of PF4 tetramer formation inhibition.

Read-outs that look alike come from different tables or passages of the source.

As for `CC(C)(C)OC(=O)N1CCOC(C(=O)C2C(=O)c3ccc(C(=O)c4ccc5c(c4)C(=O)C(C(=O)C4CN(C(=O)OC(C)(C)C)CCO4)C5=O)cc3C2=O)C1` (stereo not shown) [Example 240, tert-butyl 2-[5-(2-{4-[(tert-butoxy)carbonyl]morpholine-2-carbonyl}-1,3-dioxo-2,3-dihydro-1H-indene-5-carbonyl)-1,3-dioxo-2,3-dihydro-1H-indene-2-carbonyl]morpholine-4-carboxylate], for the setting “1 μM inhibitor”, the inhibition at 1 µM is 14%. In addition, the inhibition at 3 µM (3 μM inhibitor (column A)) is 32%.

As for `O=C(c1ccnc(-c2ccccc2)c1)C1C(=O)c2ccc(S(=O)(=O)c3ccc4c(c3)C(=O)C(C(=O)c3ccnc(-c5ccccc5)c3)C4=O)cc2C1=O` (stereo not shown) [Example 241, 5-{[1,3-dioxo-2-(2-phenylpyridine-4-carbonyl)-2,3-dihydro-1H-inden-5-yl]sulfonyl}-2-(2-phenylpyridine-4-carbonyl)-2,3-dihydro-1H-indene-1,3-dione], the inhibition at 1 µM (1 μM inhibitor) was determined as 14%. Besides, the inhibition at 3 µM (3 μM inhibitor (column A)) came out at 29%.

Regarding `CC(C(=O)C1C(=O)c2ccc(C(=O)c3ccc4c(c3)C(=O)C(C(=O)C(C)c3ccc(F)cc3)C4=O)cc2C1=O)c1ccc(F)cc1` (stereo not shown) [Example 242, 2-[2-(4-fluorophenyl)propanoyl]-5-{2-[2-(4-fluorophenyl)propanoyl]-1,3-dioxo-2,3-dihydro-1H-indene-5-carbonyl}-2,3-dihydro-1H-indene-1,3-dione], the inhibition at 1 µM (1 μM inhibitor) turned out to be 13%. For the same molecule, the inhibition at 3 µM (3 μM inhibitor (column A)) is 31%.

Consider `CC(C(=O)C1C(=O)c2ccc(S(=O)(=O)c3ccc4c(c3)C(=O)C(C(=O)C(C)c3ccc(F)cc3)C4=O)cc2C1=O)c1ccc(F)cc1` (stereo not shown) [Example 243, 2-[2-(4-fluorophenyl)propanoyl]-5-({2-[2-(4-fluorophenyl)propanoyl]-1,3-dioxo-2,3-dihydro-1H-inden-5-yl}sulfonyl)-2,3-dihydro-1H-indene-1,3-dione], for which the inhibition at 1 µM (1 μM inhibitor) came to 19%. Also, under “3 μM inhibitor (column A)”, the inhibition at 3 µM is 21%.

For the molecule `O=C(c1ccc2c(c1)C(=O)C(Br)C2=O)c1ccc2c(c1)C(=O)C(Br)C2=O` (stereo not shown) [Example 244, 2-bromo-5-(2-bromo-1,3-dioxo-2,3-dihydro-1H-indene-5-carbonyl)-2,3-dihydro-1H-indene-1,3-dione], the inhibition at 1 µM (1 μM inhibitor) was found to be 21%. Where the note is “3 μM inhibitor (column A)”, the inhibition at 3 µM was 43%.

`O=C(O)CCC(=O)C1C(=O)c2ccc(Oc3ccc4c(c3)C(=O)C(C(=O)CCC(=O)O)C4=O)cc2C1=O` (stereo not shown) [Example 245, 4-(5-{[2-(3-carboxypropanoyl)-1,3-dioxo-2,3-dihydro-1H-inden-5-yl]oxy}-1,3-dioxo-2,3-dihydro-1H-inden-2-yl)-4-oxobutanoic acid]: the inhibition at 1 µM (1 μM inhibitor) was found to be 27%. Further, the inhibition at 3 µM (3 μM inhibitor (column A)) is 47%.

Turning to `CC(=O)NCC(=O)C1C(=O)c2ccc(Oc3ccc4c(c3)C(=O)C(C(=O)CNC(C)=O)C4=O)cc2C1=O` (stereo not shown) [Example 246, N-[2-(5-{[2-(2-acetamidoacetyl)-1,3-dioxo-2,3-dihydro-1H-inden-5-yl]oxy}-1,3-dioxo-2,3-dihydro-1H-inden-2-yl)-2-oxoethyl]acetamide], the “% inhibition of PF4 tetramer formation at single concentration of inhibitor” value is 12% (1 μM inhibitor, 1 µM) and 30% under setting [1]. Besides, the IC50 under setting [2] turned out to be 3 µM.

`CCOCC(=O)C1C(=O)c2ccc(Oc3ccc4c(c3)C(=O)C(C(=O)COCC)C4=O)cc2C1=O` (stereo not shown) [Example 247, 2-(2-ethoxyacetyl)-5-{[2-(2-ethoxyacetyl)-1,3-dioxo-2,3-dihydro-1H-inden-5-yl]oxy}-2,3-dihydro-1H-indene-1,3-dione]: under “1 μM inhibitor”, the inhibition at 1 µM was found to be 19%. Besides, where the note is “3 μM inhibitor (column A)”, the inhibition at 3 µM worked out at 27%. In addition, the IC50 under setting [2] is 3 µM.

The molecule `CO[C@@H](C)C(=O)C1C(=O)c2ccc(Oc3ccc4c(c3)C(=O)C(C(=O)[C@H](C)OC)C4=O)cc2C1=O` (stereo partly drawn) [Example 248, 2-[(2S)-2-methoxypropanoyl]-5-({2-[(2S)-2-methoxypropanoyl]-1,3-dioxo-2,3-dihydro-1H-inden-5-yl}oxy)-2,3-dihydro-1H-indene-1,3-dione] yielded an IC50 of 3 µM. Also, the inhibition at 1 µM (1 μM inhibitor) turned out to be 26%. Further, under “3 μM inhibitor (column A)”, the inhibition at 3 µM stood at 56%.

As to `COCC(=O)C1C(=O)c2ccc(Oc3ccc4c(c3)C(=O)C(C(=O)COC)C4=O)cc2C1=O` (stereo not shown) [Example 249, 2-(2-methoxyacetyl)-5-{[2-(2-methoxyacetyl)-1,3-dioxo-2,3-dihydro-1H-inden-5-yl]oxy}-2,3-dihydro-1H-indene-1,3-dione], the inhibition at 1 µM (1 μM inhibitor) came out at 19%. Further, the inhibition at 3 µM (3 μM inhibitor (column A)) is 36%. For the same molecule, the IC50 under setting [2] is 3 µM.

Regarding `N#CC1C(=O)c2ccc(C(=O)c3ccc4c(c3)C(=O)C(C#N)C4=O)cc2C1=O` (stereo not shown) [Example 250, 5-(2-cyano-1,3-dioxo-2,3-dihydro-1H-indene-5-carbonyl)-1,3-dioxo-2,3-dihydro-1H-indene-2-carbonitrile], under “1 μM inhibitor”, the inhibition at 1 µM was determined as 26%. For the setting “3 μM inhibitor (column A)”, the inhibition at 3 µM was 42%. Also, under setting [2], the IC50 was 3 µM.

For `O=C1c2ccc(Oc3ccc4c(c3)C(=O)C(C(=O)C3CCCC3)C4=O)cc2C(=O)C1C(=O)C1CCCC1` (stereo not shown) [Example 251, 2-cyclopentanecarbonyl-5-[(2-cyclopentanecarbonyl-1,3-dioxo-2,3-dihydro-1H-inden-5-yl)oxy]-2,3-dihydro-1H-indene-1,3-dione], the inhibition at 1 µM (1 μM inhibitor) was 32%. For the same molecule, under “3 μM inhibitor (column A)”, the inhibition at 3 µM stood at 45%. For the same molecule, the IC50 under setting [2] came to 3 µM.

As for `Cc1ccccc1C(=O)CCC(=O)C1C(=O)c2ccc(C(=O)c3ccc4c(c3)C(=O)C(C(=O)CCC(=O)c3ccccc3C)C4=O)cc2C1=O` (stereo not shown) [Example 252, 2-[4-(2-methylphenyl)-4-oxobutanoyl]-5-{2-[4-(2-methylphenyl)-4-oxobutanoyl]-1,3-dioxo-2,3-dihydro-1H-indene-5-carbonyl}-2,3-dihydro-1H-indene-1,3-dione], the inhibition at 1 µM (1 μM inhibitor) amounted to 14%. In addition, the inhibition at 3 µM (3 μM inhibitor (column A)) came out at 37%. Further, the IC50 under setting [2] was 3 µM.

Regarding `O=C(c1ccc2c(c1)C(=O)C(C(=O)CCC(=O)c1cccc(Cl)c1Cl)C2=O)c1ccc2c(c1)C(=O)C(C(=O)CCC(=O)c1cccc(Cl)c1Cl)C2=O` (stereo not shown) [Example 253, 2-[4-(2,3-dichlorophenyl)-4-oxobutanoyl]-5-{2-[4-(2,3-dichlorophenyl)-4-oxobutanoyl]-1,3-dioxo-2,3-dihydro-1H-indene-5-carbonyl}-2,3-dihydro-1H-indene-1,3-dione], the inhibition at 1 µM (1 μM inhibitor) is 20%. The inhibition at 3 µM (3 μM inhibitor (column A)) worked out at 20%.

As for `Cc1ccccc1C(=O)CCC(=O)C1C(=O)c2ccc(S(=O)(=O)c3ccc4c(c3)C(=O)C(C(=O)CCC(=O)c3ccccc3C)C4=O)cc2C1=O` (stereo not shown) [Example 254, 2-[4-(2-methylphenyl)-4-oxobutanoyl]-5-({2-[4-(2-methylphenyl)-4-oxobutanoyl]-1,3-dioxo-2,3-dihydro-1H-inden-5-yl}sulfonyl)-2,3-dihydro-1H-indene-1,3-dione], the inhibition at 1 µM (1 μM inhibitor) is 28%. Further, under “3 μM inhibitor (column A)”, the inhibition at 3 µM worked out at 51%.

For the molecule `O=C(CCC(=O)C1C(=O)c2ccc(S(=O)(=O)c3ccc4c(c3)C(=O)C(C(=O)CCC(=O)c3cccc(Cl)c3Cl)C4=O)cc2C1=O)c1cccc(Cl)c1Cl` (stereo not shown) [Example 255, 2-[4-(2,3-dichlorophenyl)-4-oxobutanoyl]-5-({2-[4-(2,3-dichlorophenyl)-4-oxobutanoyl]-1,3-dioxo-2,3-dihydro-1H-inden-5-yl}sulfonyl)-2,3-dihydro-1H-indene-1,3-dione], the “% inhibition of PF4 tetramer formation at single concentration of inhibitor” value amounted to 9% (1 μM inhibitor, 1 µM) and 51% under setting [1]. Besides, the inhibition at 1 µM (1 μM inhibitor) turned out to be 18%. Where the note is “3 μM inhibitor (column A)”, the inhibition at 3 µM was found to be 42%.

For the molecule `COC(=O)[C@H]1CCCC[C@H]1C(=O)C1C(=O)c2ccc(S(=O)(=O)c3ccc4c(c3)C(=O)C(C(=O)[C@@H]3CCCC[C@@H]3C(=O)OC)C4=O)cc2C1=O` (stereo partly drawn) [Example 257, methyl (1S,2R)-2-[5-({2-[(1R,2S)-2-(methoxycarbonyl)cyclohexanecarbonyl]-1,3-dioxo-2,3-dihydro-1H-inden-5-yl}sulfonyl)-1,3-dioxo-2,3-dihydro-1H-indene-2-carbonyl]cyclohexane-1-carboxylate], the inhibition at 1 µM (1 μM inhibitor) came out at 7%. Further, the inhibition at 3 µM (3 μM inhibitor (column A)) was found to be 37%.

Turning to `O=C(CCC(=O)C1C(=O)c2ccc(Oc3ccc4c(c3)C(=O)C(C(=O)CCC(=O)c3cccc(Cl)c3Cl)C4=O)cc2C1=O)c1cccc(Cl)c1Cl` (stereo not shown) [Example 258, 2-[4-(2,3-dichlorophenyl)-4-oxobutanoyl]-5-({2-[4-(2,3-dichlorophenyl)-4-oxobutanoyl]-1,3-dioxo-2,3-dihydro-1H-inden-5-yl}oxy)-2,3-dihydro-1H-indene-1,3-dione], for the setting “1 μM inhibitor”, the inhibition at 1 µM stood at 18%. The inhibition at 3 µM (3 μM inhibitor (column A)) stood at 33%.

Consider `Cc1ccccc1C(=O)CCC(=O)C1C(=O)c2ccc(Oc3ccc4c(c3)C(=O)C(C(=O)CCC(=O)c3ccccc3C)C4=O)cc2C1=O` (stereo not shown) [Example 259, 2-[4-(2-methylphenyl)-4-oxobutanoyl]-5-({2-[4-(2-methylphenyl)-4-oxobutanoyl]-1,3-dioxo-2,3-dihydro-1H-inden-5-yl}oxy)-2,3-dihydro-1H-indene-1,3-dione], for which the inhibition at 1 µM (1 μM inhibitor) amounted to 18%. Moreover, the inhibition at 3 µM (3 μM inhibitor (column A)) stood at 55%.

Take `O=C(Cc1cccc(F)c1F)C1C(=O)c2ccc(Oc3ccc4c(c3)C(=O)C(C(=O)Cc3cccc(F)c3F)C4=O)cc2C1=O` (stereo not shown) [Example 260, 2-[2-(2,3-difluorophenyl)acetyl]-5-({2-[2-(2,3-difluorophenyl)acetyl]-1,3-dioxo-2,3-dihydro-1H-inden-5-yl}oxy)-2,3-dihydro-1H-indene-1,3-dione]: the inhibition at 1 µM (1 μM inhibitor) was 11%. Besides, the inhibition at 3 µM (3 μM inhibitor (column A)) was found to be 46%.

One may read the IC50 as the concentration needed to halve the response being measured.
